# Assay results reported in patent US10070660B2, “Pet food palatability with antimicrobial properties based on organic acids” (KEMIN INDUSTRIES, INC., priority 2012, dated 2018).
# “Also recorded” adds a separate entry of the source.
# Legend:
# [1] = test system: Salmonella (five Salmonella enterica serovars); assay: Cat kibble challenge with dried five strain Salmonella cocktail inoculum; format: cell-based
# Procedure: One ml of each Salmonella culture was separately inoculated into a beaker containing tempered (ambient), sterilized MBM which was then incubated at 37° C. for 48 hours. Inoculated MBM was dispensed (approx. 200 g) into sterile 250 ml centrifuge bottles and centrifuged at 5,000 rpm for 10 minutes. The supernatant was decanted and autoclaved for disposal. The pellets were suspended in 10 ml TSB-20% glycerol. Suspensions (approximately 150-160 g) were transferred to sterilized 250 ml polycarbonate straight side wide mouth jars with lids (Nalgene, Thermo Scientific). Jars containing MBM-Salmonella suspensions were immediately frozen at −70° C. for 1 hour. Frozen MBM-Salmonella suspensions were lyophilized using a FreeZone-1 Liter benchtop freeze dry system (Labconco) (approx. 96 hours, −50° C.). Each lyophilized Salmonella culture was pulverized to a fine powder using a sterile mortar and pestle. Twenty g of each of the five lyophilized Salmonella cultures was combined in a sterile wide mouth glass jar to make the dried Salmonella cocktail inoculum. […] Solidified plates were incubated inverted at 37° C. for 16-18 hours. Visible colonies were counted and colony forming units per gram were calculated (CFU/g). […] Kibble and inoculum were mixed together for five minutes by hand in a plastic zip top bag, and allowed to rest for 1 hour prior to sampling. Coated, un-inoculated kibble was also included in the study and tested for Salmonella (direct plating and FDA BAM), total aerobic bacteria, mold and yeast counts, pH, percent moisture, and water activity. For each analysis time point challenged kibble was sampled in triplicate. Kibbles were stored at ambient temperature.
# Challenged kibble samples bags were mixed thoroughly, then 5.00 g (±0.01) was aseptically weighed into a sterile plastic bag and diluted with 45 ml sterile Phosphate Buffer (Butterfield) diluent (BPB) containing (g/l) KH2PO4 34.0, pH adjusted to 7.2 with 1N sodium hydroxide and homogenized using a Stomacher (Seward Stomacher 80) for 1 minute and serially diluted in BPB for plating. The plates are poured with tempered (45° C.) XLD agar. After solidification, plates were inverted and placed in an incubator (37° C.). Colonies were counted and CFU/g was calculated. The counts for each triplicate sample were averaged and expressed as log CFU/g. Those samples of which were below the detection limit of <10 CFU/g were assigned 0 log CFU/g for the purpose of statistical analysis. Analysis of Variance using the LSD separation of means method was performed to analyze the data using StatGraphics software (StatPoint Technologies, Inc. Warrenton, Va.).
# All procedures for the Phase 3 kibble challenge were conducted as described for Phase 2.
# [2] = pH of 5% (w/v) solution of cat palatant formulated with fumaric acid; format: physicochemical
# Procedure: Preparation of palatant samples. Four samples of a cat palatant formulated with varying levels of fumaric acid (Table 6) were aseptically weighed in duplicate sterile 50 ml conical test tubes. To each test tube, 10 ml of sterile deionized water was added and mixed by vortex. The pH of a 5% (w/v) solution of each palatant was also measured (Table 6).
# [3] = pH of fumaric acid-TSB solutions; format: physicochemical
# Procedure: A 0.20% stock solution of fumaric acid was made by dissolving 0.100 g (w/v) fumaric acid in 50 ml sterile deionized water in a flask. The 0.20% stock was diluted 1:2 in sterile deionized water to obtain a 0.10% fumaric acid solution, which was then diluted 1:2 to obtain a 0.05% fumaric acid solution. Each fumaric acid stock solution (0.20%, 0.10% and 0.05%) was further diluted 1:2 in TSB (pH 4.9) to yield fumaric acid-TSB solutions of 0.100%, 0.050% and 0.025%. The pH of each fumaric-TSB solution was measured (Table 1). One hundred μl of each fumaric-TSB solution was added to triplicate wells containing 100 μl standardized inoculum. One hundred μl of untreated (0% fumaric) TSB (pH 4.9) was added to triplicate wells containing 100 μl standardized inoculum as a control. The microplate was placed in a Versamax Microplate Reader (Molecular Devices) (37° C.) with wavelength set to 600 nm. The optical density (OD600) was read every 2 hours for 48 hours.
# [4] = test system: cats; assay: Cat palatability, two-pan method (intake ratio); format: in vivo; conditions: for IR-A: Ration B incumbent; for IR: vs name brand cat food
# [5] = test system: Salmonella enterica subsp. enterica (ATCC 51741); assay: Microplate assay, inhibition of S. enterica growth in modified TSB (OD600 over 48 h); format: cell-based; conditions: microtiter plate, 0.025-0.100% in TSB, 37 C
# Procedure: FIG. 1 is a chart of the effect of fumaric acid (0%; 0.025%; 0.050%; 0.100%) on the growth of Salmonella enterica ser. Infantis in modified tryptic soy broth (pH 4.93) for 48 hours at 37° C.
# Salmonella enterica subsp. enterica (ATCC® 51741™), was obtained from the American Type Culture Collection (ATCC®) and kept as a frozen stock at −70° C. in Bacto™ Tryptic Soy Broth (TSB) with 20% (w/v) glycerol. One vial of the frozen stock culture was thawed at room temperature and 0.100 mL was transferred to 100 mL TSB (pH 7.2) containing (g/l) pancreatic digest of casein: 17, enzymatic digest of soybean meal: 3, sodium chloride, 5, dipotassium phosphate: 2.5, dextrose, 2.5, then incubated at 37° C. for 24 hours on a platform shaker set at 190 rpm. […]
# A 0.20% stock solution of fumaric acid was made by dissolving 0.100 g (w/v) fumaric acid in 50 ml sterile deionized water in a flask. […] The pH of each fumaric-TSB solution was measured (Table 1). […] The microplate was placed in a Versamax Microplate Reader (Molecular Devices) (37° C.) with wavelength set to 600 nm. The optical density (OD600) was read every 2 hours for 48 hours.
# Solutions of fumaric acid at three different concentrations (Table 3) were evaluated for inhibition of S. enterica growth in vitro using a microplate assay and measuring optical density over time (FIG. 1).
smiles,measurement,setting,value
"O=C(O)/C=C/C(=O)O [Fumaric Acid, fumaric acid]",Salmonella,"[1]; Table 4, 0.21% on cat kibble, day 0",2.79 ± 0.35^Aa log CFU/g
same,Salmonella,"[1]; Table 4, 0.21% on cat kibble, day 1",2.85 ± 0.07^Aa log CFU/g
same,Salmonella,"[1]; Table 4, 0.21% on cat kibble, day 8",2.02 ± 0.13^Bab log CFU/g
same,Salmonella,"[1]; Table 4, 0.21% on cat kibble, day 14",1.44 ± 0.24^Bbc log CFU/g
same,Salmonella,"[1]; Table 4, 0.21% on cat kibble, day 22",0.77 ± 0.39^Bc log CFU/g
same,Salmonella,"[1]; Table 5, 0.30% on cat kibble, day 0",2.44 ± 0.21^Aa log CFU/g
same,Salmonella,"[1]; Table 5, 0.30% on cat kibble, day 1",1.26 ± 0.14^Bab log CFU/g
same,Salmonella,"[1]; Table 5, 0.30% on cat kibble, day 5",0.57 ± 0.57^Bb log CFU/g
same,Salmonella,"[1]; Table 5, 0.41% on cat kibble, day 0",1.46 ± 0.09^Ba log CFU/g
same,Salmonella,"[1]; Table 5, 0.41% on cat kibble, day 1, below detection limit assigned 0",0.0 ± 0.0^Cb* log CFU/g
same,Salmonella,"[1]; Table 5, 0.41% on cat kibble, day 5, below detection limit assigned 0",0.0 ± 0.0^Bb* log CFU/g
same,Salmonella,"[1]; Table 12, 0.50% total acid on cat kibble, day 0",3.38 ± 0.02^Ba log CFU/g
same,Salmonella,"[1]; Table 12, 0.50% total acid on cat kibble, day 1",1.98 ± 0.02^Bb log CFU/g
same,Salmonella,"[1]; Table 12, 0.50% total acid on cat kibble, day 5",1.10 ± 0.10^Bc log CFU/g
same,Salmonella,"[1]; Table 12, 0.50% total acid on cat kibble, day 7",0.33 ± 0.33^Bd log CFU/g
same,Salmonella,"[1]; Table 12, 0.50% total acid on cat kibble, day 14",0.33 ± 0.33^Bd log CFU/g
same,Salmonella,"[1]; Table 12, 0.50% total acid on cat kibble, day 21",0.00 ± 0.00^Bd log CFU/g
same,Salmonella counts on challenged cat kibble vs control palatant (in words),[1]; cat kibble challenge,significant efficacy against Salmonella spp; also recorded: significantly lower Salmonella counts; also recorded: demonstrated antimicrobial activity; also recorded: significant reduction in Salmonella count; also recorded: dose response
same,Salmonella counts,"[1]; highest level of fumaric acid on cat kibble, after 1 day, detection limit",< 10 CFU/g
same,pH,[2]; cat palatant with 14% fumaric acid in formula,3.15
same,pH,[2]; cat palatant with 20% fumaric acid in formula,3.01
same,pH,[2]; cat palatant with 27% fumaric acid in formula,2.93
same,pH in TSB,[3]; 0.025% fumaric acid,4.67
same,pH in TSB,[3]; 0.050% fumaric acid,4.42
same,pH in TSB,[3]; 0.100% fumaric acid,4.06
same,IR-A,"[4]; Confirmation trials, Prototype 89-87, 0.25% acid on kibble (so in the source)",0.65 (p ≤ 0.05)
same,palatability (in words),"[4]; Example 4 cat trials, formula 89-87 or 89-145 vs incumbent dry palatant",parity palatability score; also recorded: scores improved
same,IR-A,"[4]; First set, Prototype 89-87 at 2.5%, 0.5% total acid on kibble",0.46 (N.S.)
same,IR,"[4]; Trial 412 (so in the source), 20% fumaric acid in formula (80 mesh), 0.30% on kibble",0.77
same,IR,"[4]; Trial 426, 14% fumaric acid in formula (30 mesh sieve), 0.21% on kibble",0.57
same,IR,"[4]; Trial 465, 14% fumaric acid in formula (80 mesh sieve), 0.21% on kibble",0.62
same,IR,"[4]; Trial 481, 27% fumaric acid in formula (80 mesh), ~0.41% on kibble",0.74
same,inhibition of S. enterica growth in vitro (in words),[5],effective antimicrobial agent
